In PMC11999338, “Factor XI localization in human deep venous thrombus and function of activated factor XI on venous thrombus formation and hemostasis” (Research and Practice in Thrombosis and Haemostasis, 2025):

Tested on: PT and aPTT
Assay: PT and aPTT after oral administration in rabbit stasis model
Type: in vivo
Conditions: rabbits, stasis model, 1, 3, and 7 hours; ONO-1600586 50 mg/mL, rivaroxaban 15 mg/mL (so in the source)
Experimental: The protocols of venous thrombosis by stasis were as follows (Supplementary Figure 4). First, fasting rabbits were orally administered a solvent as a control (n = 8), a FXIa inhibitor (ONO-1600586, 50 mg/kg, n = 8), or a FXa inhibitor (rivaroxaban, 15 mg/kg, n = 8) using a Nelaton catheter of 5 mm diameter (IZUMO Health Co, Ltd) 60 minutes before thrombus formation. The process of thrombus formation was performed under general anesthesia through the subcutaneous injection of a mixture of medetomidine hydrochloride (0.08 mg/kg body weight), butorphanol tartrate (0.2 mg/kg), and midazolam (0.4 mg/kg).
Blood samples were collected from the central ear arteries of the rabbits before and 1, 3, and 7 hours after administering the solvent, ONO-1600586, and rivaroxaban in 3.8% sodium citrate (9:1 v/v) using 21-gauge needles. Plasma samples were centrifuged at 1500 × g for 15 minutes at room temperature. PT and aPTT were measured using a coagulation timer (KC-1 Delta, Tcoag Ireland Ltd) and reagents (aPTT: ACTIN, Siemens; PT: THROMBOCHECK PT+, Sysmex). Data are expressed as a ratio of PT and aPTT to those before administration.

Question: What does the source list for `O=C(NC[C@H]1CN(c2ccc(N3CCOCC3=O)cc2)C(=O)O1)c1ccc(Cl)s1` [rivaroxaban]?
Answer: PT after oral administration: prolonged; aPTT after oral administration: prolonged
